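Briefly, cells in 96-well plates were exposed to five compound concentrations for 48 h, and endpoints were estimated by linear interpolation. GI50 marks 50% less growth. TGI: concentration producing complete growth inhibition.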
How the values were obtained:
Test in all cases: NCI anticancer screen, dose series, 48 h
UACC-62 melanoma = tested on: UACC-62 melanoma
EKVX NSCLC = tested on: EKVX NSCLC
A498 renal = tested on: A498 renal
SF-539 CNS = tested on: SF-539 CNS
SNB-19 CNS = tested on: SNB-19 CNS
RPMI-8226 leukemia = tested on: RPMI-8226 leukemia
LOX IMVI melanoma = tested on: LOX IMVI melanoma
HL-60(TB) leukemia = tested on: HL-60(TB) leukemia
CCRF-CEM leukemia = tested on: CCRF-CEM leukemia
OVCAR-4 ovarian = tested on: OVCAR-4 ovarian

Row | SMILES | GI50 (UACC-62 melanoma) [µM] | TGI (UACC-62 melanoma) [µM] | GI50 (EKVX NSCLC) [µM] | TGI (EKVX NSCLC) [µM] | GI50 (A498 renal) [µM] | TGI (A498 renal) [µM] | GI50 (SF-539 CNS) [µM] | TGI (SF-539 CNS) [µM] | GI50 (SNB-19 CNS) [µM] | TGI (SNB-19 CNS) [µM] | GI50 (RPMI-8226 leukemia) [µM] | TGI (RPMI-8226 leukemia) [µM] | GI50 (LOX IMVI melanoma) [µM] | TGI (LOX IMVI melanoma) [µM] | GI50 (HL-60(TB) leukemia) [µM] | TGI (HL-60(TB) leukemia) [µM] | GI50 (CCRF-CEM leukemia) [µM] | TGI (CCRF-CEM leukemia) [µM] | GI50 (OVCAR-4 ovarian) [µM] | TGI (OVCAR-4 ovarian) [µM]
1 | CCC(c1ccc(OC)cc1)C(CC)c1ccc(O)c(CN2CCCC2)c1 (centres undefined) | 2.07 | 4.97 | 5.07 | 19.3 | 2.51 | 11.1 | 4.16 | 15.6 | 4.39 | 17.2 | 2.24 | 6.28 | 2.04 | 4.74 | 2.14 | 4.76 | 3.56 | 13.5 | 2.54 | 15.2
2 | CCN(CC)CCOC(=O)/C(=C/c1ccc(OC)cc1)c1cc(OC)c(OC)c(OC)c1 |  | 24.1 |  | > 100 |  | 8.64 |  | 10.8 |  | 80.6 |  | 52.5 |  | 18.6 |  | 16.4 |  | > 100 |  | > 100
3 | CC(C)Cc1ccc(C(C)/C=C2\CCC(CN3CCCC3)C2=O)cc1 (centres undefined) |  | 31.2 |  | 33.3 |  | 36.5 |  | 15.4 |  | 26.4 |  | 5.53 |  | 8.49 |  | > 100 |  | 8.71 |  | 27.1
4 | c1ccc2c(c1)nnn2CNc1ccc(N2CCOCC2)cc1 |  | > 100 |  | > 100 |  | > 100 |  | > 100 |  | > 100 |  | > 100 |  | > 100 |  | > 100 |  | > 100 |  | > 100
5 | CCn1cc(C(=O)N/N=C/c2cccc(F)c2)c(=O)c2cc(F)c(N3CCNC(C)C3)c(F)c21 (centres undefined) | 1.77 | 3.2 | 1.6 | 3.06 | 1.28 | 6.36 | 1.59 | 2.96 | 1.7 | 3.15 | 1.79 | 3.77 | 1.71 | 3.21 | 1.88 | 3.66 | 1.55 | 3.39 | 2.02 | 4.22
6 | Cc1ccc(NC(=O)CC/C(CC(=O)c2ccc(Cl)cc2)=N\NC(=O)C(=O)NN)cc1C |  | > 100 |  | > 100 |  | > 100 |  | > 100 |  | > 100 |  | > 100 |  | > 100 |  | > 100 |  | > 100 |  | > 100
7 | CC(=O)O[C@H]1CCC2[C@@H]3CCC4Nc5c(cnn5-c5ccccc5)C[C@]4(C)C3CC[C@@]21C (some centres undefined) |  | 22.6 |  | 16.5 |  | > 100 |  | 54.9 |  | 41.9 |  | 46.2 |  | 25.4 |  | 32.9 |  | 39.5 |  | 71.3
8 | C=C1SC(=Nc2ccccc2Cl)N(C(=O)c2sc3ccccc3c2Cl)C1(C)C | 9.24 | > 100 | 2.38 | 18.2 | 4.04 | > 57.5 | 14 | > 100 | 3.64 | > 100 | 2.44 |  | 9.62 | > 100 | 9.3 | > 100 | 3.93 | > 25.3 | 5.54 | > 100

Source: PubChem BioAssay (NCI)
